Test results taken from patent publication US10047051B2, “Substituted pyridines and method of use” (AbbVie S.á{acute over (.)}r.l., priority 2015, dated 2018).

Experiments:
[1] = biological target: T1, CFTR G551D mutant (Homo sapiens, UniProt P13569, G551D); assay: YFP-halide influx assay for the CFTR-G551D mutation (HEK293 cells); assay type: cell-based; conditions: forskolin 10.67 μM
T1 construct: expressed in transfected cells; host or cells: HEK293 cells, reverse transfection with plasmids
How it was run: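 HEK293 cells reverse-transfected with CFTR G551D and halide-sensitive YFP (H148Q/I152L/F47L), expressed 24 h at 37 °C. YFP fluorescence quenching recorded for 7 s after I⁻ injection. Response = 1−F/F0; EC50 derived from 1−F/F0 vs compound concentration.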

[2] = biological target: T2, CFTR ΔF508 mutant (Homo sapiens, UniProt P13569, DEL508-508); assay: YFP-halide influx assay for the CFTR-ΔF508 mutation (CFBE41o- cells); assay type: cell-based; conditions: forskolin 10.67 μM; for EC50: from (1−F/F0) vs concentration plot
T2 construct: expressed in transfected cells; host or cells: CFBE41o- cells, adenoviral transduction
How it was run: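 CFBE41o- cells transduced with adenovirus expressing CFTR ΔF508 and halide-sensitive YFP H148Q/I152L/F47L, then held 24 h at 27° C or with a CFTR modulator 24 h at 37° C. Iodide-induced quench recorded 2 min; EC50 from (1−F/F0) at 36 s versus concentration.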

T2 sequence (P13569 with tags, fused parts or gaps DEL508-508): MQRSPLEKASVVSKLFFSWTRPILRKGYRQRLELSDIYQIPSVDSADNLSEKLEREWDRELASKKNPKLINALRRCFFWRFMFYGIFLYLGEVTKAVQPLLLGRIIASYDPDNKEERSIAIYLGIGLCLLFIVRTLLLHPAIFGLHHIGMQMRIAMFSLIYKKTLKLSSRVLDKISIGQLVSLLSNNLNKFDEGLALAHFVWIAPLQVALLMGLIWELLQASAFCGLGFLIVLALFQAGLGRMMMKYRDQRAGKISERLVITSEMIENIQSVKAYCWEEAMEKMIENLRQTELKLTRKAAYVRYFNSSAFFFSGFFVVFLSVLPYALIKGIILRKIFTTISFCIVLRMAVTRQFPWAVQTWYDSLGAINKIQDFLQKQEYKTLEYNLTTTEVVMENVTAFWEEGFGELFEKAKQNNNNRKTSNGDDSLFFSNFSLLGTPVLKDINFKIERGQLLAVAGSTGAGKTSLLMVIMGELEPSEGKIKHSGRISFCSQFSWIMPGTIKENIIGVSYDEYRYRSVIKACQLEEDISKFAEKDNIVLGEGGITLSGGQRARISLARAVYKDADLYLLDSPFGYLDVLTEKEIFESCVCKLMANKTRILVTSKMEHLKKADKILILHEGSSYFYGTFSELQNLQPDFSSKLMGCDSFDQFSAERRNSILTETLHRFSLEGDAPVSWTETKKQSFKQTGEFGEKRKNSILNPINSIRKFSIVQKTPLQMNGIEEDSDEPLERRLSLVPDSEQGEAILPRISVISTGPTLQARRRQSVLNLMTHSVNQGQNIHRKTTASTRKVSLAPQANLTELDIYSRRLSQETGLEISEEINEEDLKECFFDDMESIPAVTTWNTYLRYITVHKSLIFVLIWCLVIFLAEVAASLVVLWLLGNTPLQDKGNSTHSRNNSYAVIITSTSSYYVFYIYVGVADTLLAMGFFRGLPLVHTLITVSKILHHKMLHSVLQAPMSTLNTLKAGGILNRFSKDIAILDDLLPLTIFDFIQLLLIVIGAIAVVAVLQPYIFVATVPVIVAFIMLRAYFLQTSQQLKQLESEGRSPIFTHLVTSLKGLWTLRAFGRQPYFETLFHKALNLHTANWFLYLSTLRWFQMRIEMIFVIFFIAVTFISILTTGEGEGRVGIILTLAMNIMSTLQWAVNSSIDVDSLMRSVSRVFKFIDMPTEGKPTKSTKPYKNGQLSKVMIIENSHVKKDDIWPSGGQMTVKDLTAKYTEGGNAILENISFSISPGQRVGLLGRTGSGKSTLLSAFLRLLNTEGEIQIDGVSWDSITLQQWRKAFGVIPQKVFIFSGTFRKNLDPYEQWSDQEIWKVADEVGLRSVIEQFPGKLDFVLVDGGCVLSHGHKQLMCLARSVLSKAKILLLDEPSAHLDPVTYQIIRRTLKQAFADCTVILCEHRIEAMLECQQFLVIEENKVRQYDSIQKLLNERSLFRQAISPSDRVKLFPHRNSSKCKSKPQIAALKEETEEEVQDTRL
T1 sequence (P13569 whole entry G551D): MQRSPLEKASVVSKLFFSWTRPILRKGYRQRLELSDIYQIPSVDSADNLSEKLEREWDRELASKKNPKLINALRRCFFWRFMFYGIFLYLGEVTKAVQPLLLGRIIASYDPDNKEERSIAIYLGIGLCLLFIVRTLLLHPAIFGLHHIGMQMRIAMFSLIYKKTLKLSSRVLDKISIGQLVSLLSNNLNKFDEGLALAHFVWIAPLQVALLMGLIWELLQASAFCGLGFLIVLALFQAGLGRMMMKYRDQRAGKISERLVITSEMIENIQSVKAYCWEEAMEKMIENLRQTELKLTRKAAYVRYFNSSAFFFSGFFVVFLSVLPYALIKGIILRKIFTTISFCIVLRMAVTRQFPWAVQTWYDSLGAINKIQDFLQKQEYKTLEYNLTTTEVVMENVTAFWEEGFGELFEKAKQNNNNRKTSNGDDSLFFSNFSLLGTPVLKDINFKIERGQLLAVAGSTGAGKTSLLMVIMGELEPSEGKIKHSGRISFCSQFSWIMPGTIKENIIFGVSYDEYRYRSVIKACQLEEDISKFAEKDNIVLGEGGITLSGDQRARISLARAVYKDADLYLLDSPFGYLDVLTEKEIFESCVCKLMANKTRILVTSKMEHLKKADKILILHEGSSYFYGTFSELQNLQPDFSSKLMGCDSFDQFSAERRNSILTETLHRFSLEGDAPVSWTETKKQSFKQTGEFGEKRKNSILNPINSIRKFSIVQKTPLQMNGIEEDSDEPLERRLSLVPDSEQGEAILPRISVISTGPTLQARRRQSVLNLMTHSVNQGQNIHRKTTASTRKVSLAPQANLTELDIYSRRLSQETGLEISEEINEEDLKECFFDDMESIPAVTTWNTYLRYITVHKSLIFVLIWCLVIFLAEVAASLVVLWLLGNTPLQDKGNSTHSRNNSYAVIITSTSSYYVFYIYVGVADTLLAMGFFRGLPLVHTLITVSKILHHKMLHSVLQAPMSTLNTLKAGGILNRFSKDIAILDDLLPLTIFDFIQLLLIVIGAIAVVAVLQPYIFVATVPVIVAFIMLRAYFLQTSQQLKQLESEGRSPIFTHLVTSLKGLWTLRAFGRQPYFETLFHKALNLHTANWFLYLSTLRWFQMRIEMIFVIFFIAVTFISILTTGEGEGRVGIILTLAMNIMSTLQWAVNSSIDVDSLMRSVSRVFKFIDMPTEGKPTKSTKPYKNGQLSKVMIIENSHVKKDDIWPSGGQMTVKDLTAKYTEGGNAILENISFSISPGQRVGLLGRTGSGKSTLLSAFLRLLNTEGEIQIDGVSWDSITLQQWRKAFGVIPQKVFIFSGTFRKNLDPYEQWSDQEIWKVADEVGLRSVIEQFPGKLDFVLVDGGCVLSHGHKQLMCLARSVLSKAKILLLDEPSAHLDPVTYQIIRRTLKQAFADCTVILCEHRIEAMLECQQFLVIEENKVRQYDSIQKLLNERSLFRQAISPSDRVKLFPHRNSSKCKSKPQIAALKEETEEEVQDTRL

Structure (SMILES)	% Activation [1]	EC50 [1]	% Activation [2]	EC50 [2]
Nc1cc(S(=O)(=O)N2CC(F)(F)C2)cnc1C(=O)NCC(O)C(F)(F)F (stereo not shown) [Compound 97, 3-amino-5-[(3,3-difluoroazetidin-1-yl)sulfonyl]-N-(3,3,3-trifluoro-2-hydroxypropyl)pyridine-2-carboxamide]	23.8%	> 10000 nM	92.9%	102 nM
Nc1cc(S(=O)(=O)c2ccc(C(F)(F)F)cc2)cnc1C(=O)N[C@H]1COCC[C@H]1O [Compound 257, 3-amino-N-[(3S,4R)-4-hydroxytetrahydro-2H-pyran-3-yl]-5-{[4-(trifluoromethyl)phenyl]sulfonyl}pyridine-2-carboxamide]	50.4%	760 nM	122.0%	26.9 nM
CC(C)C(C)NC(=O)c1ncc(S(=O)(=O)c2ccc(C(F)(F)F)cc2)cc1N (stereo not shown) [Compound 188, 3-amino-N-(3-methylbutan-2-yl)-5-{[4-(trifluoromethyl)phenyl]sulfonyl}pyridine-2-carboxamide]	13.4%	> 10000 nM	88.8%	378 nM
CC(C)COCC(O)CNC(=O)c1ncc(S(=O)(=O)c2ccc(C(F)(F)F)cc2F)cc1N (stereo not shown) [Compound 170, 3-amino-5-{[2-fluoro-4-(trifluoromethyl)phenyl]sulfonyl}-N-[2-hydroxy-3-(2-methylpropoxy)propyl]pyridine-2-carboxamide]	82.5%	251 nM	108.6%	6.6 nM
Nc1cc(S(=O)(=O)c2ccc(OC(F)(F)F)cc2F)cnc1C(=O)NC[C@@H]1CCOC1 [Compound 116, 3-amino-5-{[2-fluoro-4-(trifluoromethoxy)phenyl]sulfonyl}-N-[(3S)-tetrahydrofuran-3-ylmethyl]pyridine-2-carboxamide]	50.0%	1400 nM	101.1%	27.7 nM
Nc1cc(S(=O)(=O)c2ccc(C(F)(F)F)cc2)cnc1C(=O)NCCOCC1CCCO1 (stereo not shown) [Compound 190, 3-amino-N-[2-(tetrahydrofuran-2-ylmethoxy)ethyl]-5-{[4-(trifluoromethyl)phenyl]sulfonyl}pyridine-2-carboxamide]	67.4%	1880 nM	96.6%	135 nM

More lines, now with the values ahead:

% Activation [1]	EC50 [1]	% Activation [2]	EC50 [2]	Structure (SMILES)
5.8%	> 10000 nM	44.6%	> 667 nM	CN1CC(NC(=O)c2ncc(S(=O)(=O)c3ccc(OC(F)(F)F)cc3)cc2N)C1 [Compound 210, 3-amino-N-(1-methylazetidin-3-yl)-5-{[4-(trifluoromethoxy)phenyl]sulfonyl}pyridine-2-carboxamide]
1.7%	> 10000 nM	14.8%	> 2000 nM	CN1CCC(O)(CNC(=O)c2ncc(S(=O)(=O)c3ccc(OC(F)(F)F)cc3)cc2N)CC1 [Compound 5, 3-amino-N-[(4-hydroxy-1-methylpiperidin-4-yl)methyl]-5-{[4-(trifluoromethoxy)phenyl]sulfonyl}pyridine-2-carboxamide]
50.0%	> 3330 nM	89.4%	167 nM	COc1ccnc(CNC(=O)c2ncc(S(=O)(=O)N3CCC[C@@H]3C)cc2N)n1 [Compound 281, 3-amino-N-[(4-methoxypyrimidin-2-yl)methyl]-5-{[(2S)-2-methylpyrrolidin-1-yl]sulfonyl}pyridine-2-carboxamide]
30.7%	> 10000 nM	99.9%	112 nM	CC(C)CNC(=O)c1ncc(S(=O)(=O)c2ccc(C(F)(F)F)cc2)cc1N [Compound 189, 3-amino-N-(2-methylpropyl)-5-{[4-(trifluoromethyl)phenyl]sulfonyl}pyridine-2-carboxamide]
